Source: patent US8859549B2, “Potassium channel modulators” (AbbVie, Inc., priority 2011, dated 2014)

Target: T1, KCNQ 2/3 channels (Homo sapiens, UniProt O43525+O43526)
T1 construct: expressed in transfected cells; host or cells: HEK293
Test: KCNQ 2/3 channel activation, thallium flux FLIPR assay (BTC-AM dye)
Assay type: cell-based
Details: for Emax: HEK293, maximum response relative to the response of 10 μM retigabine (set at 100%), read-out: % MAX; for EC50: HEK293 cells stably expressing human KCNQ2 and KCNQ3 subunits, thallium-induced fluorescence, 4 min compound incubation
Procedure: The following example describes the assay that can be used to identify compounds that activate KCNQ 2/3 channels.
HEK293 cells stably expressing human KCNQ2 and KCNQ3 subunits were seeded in 96-well, black-walled, clear-bottomed, poly-D-lysine coated plates (BD Biosciences, Bedford, Mass.) at a density of 1×10^5 cells per well 24 hours before the assay. On the assay day, BTC-AM dye (Invitrogen, Carlsbad, Calif.) was loaded into the cells by replacing the cell culture medium with 55 μL/well of 3 μg/mL dye in DPBS. Dye loading was allowed to proceed for 2 hours at room temperature and then cells were washed twice with 50 μL/well of assay buffer (in mM: 10 HEPES pH 7.3, 5 glucose, 140 Na-gluconate, 2.5 K-gluconate, 3.6 Ca-gluconate, 2 MgSO4, 0.1 Ouabain) to remove unloaded dye. Cells were incubated in 50 μL of assay buffer before loading onto a FLIPR system (Molecular Devices, Sunnyvale, Calif.). Various concentrations of compounds to be assayed were added to the cells in 50 μL of assay buffer and incubated for 4 minutes. The fluorescence signal was initiated by adding 100 μL of assay buffer containing 6 mM TlNO3 and 10 mM K2SO4. Fluors were excited using the 488-nm line of an argon laser and emission was filtered using a 540±30 nm bandpass filter. Fluorescent signals were recorded for 3 minutes. Sums of the responses over basal responses were plotted versus concentrations of test compounds to obtain an EC50 value. The maximum response for each test compound was determined relative to the response produced by 10 μM retigabine. The maximum response of retigabine at 10 μM was set at 100%.

Structure (SMILES)	Emax (HEK293 KCNQ2/KCNQ3 cells) [%]	EC50 [nM]	% MAX (maximum response relative to the response of 10 μM retigabine (set at 100%), HEK293 KCNQ2/KCNQ3 cells) [%]
NC(=O)c1cc(-c2nn(NC(=O)CC3CC4CCC3C4)c(=O)c3ccccc23)ccn1 (racemic) [Example 72, (±)-4-(3-{[(exo)-bicyclo[2.2.1]hept-2-ylacetyl]amino}-4-oxo-3,4-dihydrophthalazin-1-yl)pyridine-2-carboxamide]	13.7		
COC(=O)c1cc(-c2nn(NC(=O)CC3CC4CCC3C4)c(=O)c3ccccc23)ccn1 (racemic) [Example 74, (±)-methyl 4-(3-{[(exo)-bicyclo[2.2.1]hept-2-ylacetyl]amino}-4-oxo-3,4-dihydrophthalazin-1-yl)pyridine-2-carboxylate]	21.8		
O=C(CC1CC2CCC1C2)Nn1nc(-c2ccnc(C(=O)O)c2)c2ccccc2c1=O (racemic) [Example 75, (±)-4-(3-{[(exo)-bicyclo[2.2.1]hept-2-ylacetyl]amino}-4-oxo-3,4-dihydrophthalazin-1-yl)pyridine-2-carboxylic acid]	183	4120	
O=C(CC1CC2CCC1C2)Nn1nc(C(=O)N2CCOCC2)c2ccccc2c1=O (racemic) [Example 95, (±)-2-[(exo)-bicyclo[2.2.1]hept-2-yl]-N-[4-(morpholin-4-ylcarbonyl)-1-oxophthalazin-2(1H)-yl]acetamide]	73		
O=C(CC1CC2CCC1C2)Nn1nc(CNC(=O)OCc2ccccc2)c2ccccc2c1=O (racemic) [Example 96, (±)-benzyl[(3-{[(exo)-bicyclo[2.2.1]hept-2-ylacetyl]amino}-4-oxo-3,4-dihydrophthalazin-1-yl)methyl]carbamate]	79.4	315	
O=C(CC1CC2CCC1C2)Nn1nc(Cc2ccncc2)c2ccccc2c1=O (racemic) [Example 97, (±)-2-[(exo)-bicyclo[2.2.1]hept-2-yl]-N-[1-oxo-4-(pyridin-4-ylmethyl)phthalazin-2(1H)-yl]acetamide]	173	2700	
CC(C)(C)OC(=O)N1CCN(C(=O)c2nn(NC(=O)CC3CC4CCC3C4)c(=O)c3ccccc23)CC1 (racemic) [Example 98, (±)-tert-butyl 4-[(3-{[(exo)-bicyclo[2.2.1]hept-2-ylacetyl]amino}-4-oxo-3,4-dihydrophthalazin-1-yl)carbonyl]piperazine-1-carboxylate]	140	4970	
CC(C)(C)NC(=O)c1nn(NC(=O)CC2CC3CCC2C3)c(=O)c2ccccc12 (racemic) [Example 99, (±)-3-{[(exo)-bicyclo[2.2.1]hept-2-ylacetyl]amino}-N-tert-butyl-4-oxo-3,4-dihydrophthalazine-1-carboxamide]	177	206	
O=C(CC1CC2CCC1C2)Nn1nc(Cc2cc[n+]([O-])cc2)c2ccccc2c1=O (racemic) [Example 100, (±)-2-[(exo)-bicyclo[2.2.1]hept-2-yl]-N-{4-[(1-oxidopyridin-4-yl)methyl]-1-oxophthalazin-2(1H)-yl}acetamide]	53.4	916	
O=C(CC1CC2CCC1C2)Nn1nc(C(O)c2ccccc2)c2ccccc2c1=O (racemic) [Example 102, (±)-2-[(exo)-bicyclo[2.2.1]hept-2-yl]-N-{4-[hydroxy(phenyl)methyl]-1-oxophthalazin-2(1H)-yl}acetamide]	212	894	
O=C(CC1CC2CCC1C2)Nn1nc(C(=O)Nc2ccc(Cl)cc2)c2ccccc2c1=O (racemic) [Example 108, (±)-3-{[(exo)-bicyclo[2.2.1]hept-2-ylacetyl]amino}-N-(4-chlorophenyl)-4-oxo-3,4-dihydrophthalazine-1-carboxamide]	155	2040	
O=C(CC1CC2CCC1C2)Nn1nc(C(=NO)c2ccccc2)c2ccccc2c1=O (racemic) [Example 120, (±)-2-[(exo)-bicyclo[2.2.1]hept-2-yl]-N-{4-[(Z)-(hydroxyimino)(phenyl)methyl]-1-oxophthalazin-2(1H)-yl}acetamide]	136	3180	
CC(C)(C)OC(=O)NC(c1ccccc1)c1nn(NC(=O)CC2CC3CCC2C3)c(=O)c2ccccc12 (racemic) [Example 179, tert-butyl(±)-[(3-{[(exo)-bicyclo[2.2.1]hept-2-ylacetyl]amino}-4-oxo-3,4-dihydrophthalazin-1-yl)(phenyl)methyl]carbamate]	185	267	
O=C(CC1CC2CCC1C2)Nn1nc(N2CCS(=O)(=O)CC2)c2ccccc2c1=O (racemic) [Example 190, (±)-2-[(exo)-bicyclo[2.2.1]hept-2-yl]-N-[4-(1,1-dioxidothiomorpholin-4-yl)-1-oxophthalazin-2(1H)-yl]acetamide]	74.3	10600	
O=C(Cc1cc(F)cc(F)c1)Nn1nc(N2CCOCC2)c2ccccc2c1=O [Example 1, 2-(3,5-difluorophenyl)-N-[4-(morpholin-4-yl)-1-oxophthalazin-2(1H)-yl]acetamide]	130	4460	
O=C(Cc1ccc(Cl)cc1)Nn1nc(N2CCOCC2)c2ccccc2c1=O [Example 2, 2-(4-chlorophenyl)-N-[4-(morpholin-4-yl)-1-oxophthalazin-2(1H)-yl]acetamide]	117	2700	
O=C(Cc1ccc(Cl)cc1)Nn1nc(-c2ccc(Cl)nc2)c2ccccc2c1=O [Example 5, 2-(4-chlorophenyl)-N-[4-(6-chloropyridin-3-yl)-1-oxophthalazin-2(1H)-yl]acetamide]	85.2	470	
O=C(Cc1cc(F)cc(F)c1)Nn1nc(C2=CCOCC2)c2ccccc2c1=O [Example 7, 2-(3,5-difluorophenyl)-N-[4-(3,6-dihydro-2H-pyran-4-yl)-1-oxophthalazin-2(1H)-yl]acetamide]	140	3130	

The next lines start with the values.

Emax (HEK293 KCNQ2/KCNQ3 cells) [%]	EC50 [nM]	% MAX (maximum response relative to the response of 10 μM retigabine (set at 100%), HEK293 KCNQ2/KCNQ3 cells) [%]	Structure (SMILES)
179	13.1		O=C(CC1CC2CCC1C2)Nn1nc(S(=O)(=O)c2ccccc2)c2ccccc2c1=O (racemic) [Example 70, (±)-2-[(exo)-bicyclo[2.2.1]hept-2-yl]-N-[1-oxo-4-(phenylsulfonyl)phthalazin-2(1H)-yl]acetamide]
	141	196	CC1CN(c2nn(NC(=O)CC3CC4CCC3C4)c(=O)c3ccccc23)CC(C)O1 (racemic) [Example 90, (±)-2-[(exo)-bicyclo[2.2.1]hept-2-yl]-N-{4-[(cis)-2,6-dimethylmorpholin-4-yl]-1-oxophthalazin-2(1H)-yl}acetamide]
229	78.2		O=C(CC1CC2CCC1C2)Nn1nc(N2CCSCC2)c2ccccc2c1=O (racemic) [Example 93, (±)-2-[(exo)-bicyclo[2.2.1]hept-2-yl]-N-[1-oxo-4-(thiomorpholin-4-yl)phthalazin-2(1H)-yl]acetamide]
201	76.7		CC(C)(C)OC(=O)c1nn(NC(=O)CC2CC3CCC2C3)c(=O)c2ccccc12 (racemic) [Example 94, (±)-tert-butyl 3-{[(exo)-bicyclo[2.2.1]hept-2-ylacetyl]amino}-4-oxo-3,4-dihydrophthalazine-1-carboxylate]
180	23.2		O=C(CC1CC2CCC1C2)Nn1nc(Sc2ccc(Br)cc2)c2ccccc2c1=O (racemic) [Example 200, (±)-2-[(exo)-bicyclo[2.2.1]hept-2-yl]-N-{4-[(4-bromophenyl)sulfanyl]-1-oxophthalazin-2(1H)-yl}acetamide]
164	24		O=C(CC1CC2CCC1C2)Nn1nc(S(=O)(=O)c2ccc(Br)cc2)c2ccccc2c1=O (racemic) [Example 204, (±)-2-[(exo)-bicyclo[2.2.1]hept-2-yl]-N-{4-[(4-bromophenyl)sulfonyl]-1-oxophthalazin-2(1H)-yl}acetamide]
197	21.7		O=C(CC1CC2CCC1C2)Nn1nc(SCc2ccccc2)c2ccccc2c1=O (racemic) [Example 214, (±)-N-[4-(benzylsulfanyl)-1-oxophthalazin-2(1H)-yl]-2-[(exo)-bicyclo[2.2.1]hept-2-yl]acetamide]
147	74.8		O=C(CC1CC2CCC1C2)Nn1nc(S(=O)(=O)Cc2ccccc2)c2ccccc2c1=O (racemic) [Example 217, (±)-N-[4-(benzylsulfonyl)-1-oxophthalazin-2(1H)-yl]-2-[(exo)-bicyclo[2.2.1]hept-2-yl]acetamide]
145	14.6		N#Cc1ccc(S(=O)(=O)c2nn(NC(=O)C[C@H]3C[C@@H]4CC[C@H]3C4)c(=O)c3ccccc23)cc1 (racemic) [Example 219, (±)-2-[(exo)-bicyclo[2.2.1]hept-2-yl]-N-{4-[(4-cyanophenyl)sulfonyl]-1-oxophthalazin-2(1H)-yl}acetamide]
139	57.9		CCC1CN(c2nn(NC(=O)CC3CC4CCC3C4)c(=O)c3ccccc23)CCO1 (racemic) [Example 220, (±)-2-[(exo)-bicyclo[2.2.1]hept-2-yl]-N-[4-(2-ethylmorpholin-4-yl)-1-oxophthalazin-2(1H)-yl]acetamide]
